Reference: patent US9371286B2, “Pharmaceutical composition with enhanced efficacy for inhibiting angiogenesis” (INDUSTRY-ACADEMIC COOPERATION FOUNDATION, YONSEI UNIVERSITY, priority 2011, dated 2016)

Key:
HIF-1α = HIF-1α stability analysis (western blot, hypoxia); type: cell-based; details: HepG2 cells pretreated 30 minutes, then 1% O2 for 4 hours; for IC50: HIF-1α protein level by western blot, read-out: IC50 values of respective compounds on HIF-1 α; for hypoxia-induced HIF-1α protein accumulation: western blot
Method: HepG2 cells were pretreated with indicated concentrations of the synthetic derivatives for 30 minutes and then exposed to 1% O2 for 4 hours. HIF-1α and tubulin protein levels were analyzed using western blot analysis.

UQCRB = molecular target: T1, UQCRB (Homo sapiens, UniProt P14927); test: Surface plasmon resonance (BIAcore) competitive binding analysis; details: for binding efficiency of UQCRB to biotinylated terpestacin (BT) after co-incubation: competitor 25 μM incubated with purified UQCRB protein 25 μM, BIAcore 2000; for direct binding to UQCRB: concluded from SPR competition with biotinylated terpestacin
T1 sequence (P14927 1-111): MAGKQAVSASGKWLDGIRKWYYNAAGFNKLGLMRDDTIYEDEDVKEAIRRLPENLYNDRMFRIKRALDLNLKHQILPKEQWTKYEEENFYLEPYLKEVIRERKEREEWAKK
Method: SPR analysis was performed to analyze the binding of the compounds to UQCRB. Control biotin and biotinylated terpestacin (BT) were sequentially immobilized onto the surface of a streptavidin-coated sensor chip and the apparent binding affinities were calculated by subtraction of resonance values of UQCRB binding to control biotin from those of UQCRB binding to BT. For competitive binding analysis, the compounds were each incubated with the UQCRB protein, and then the complexes were injected into flow cells of the sensor chip.
In order to further investigate the binding of A1893 and A1938 to UQCRB, the present inventors performed SPR (BIAcore) analysis. Control biotin and biotinylated terpestacin were sequentially immobilized onto the surface of a streptavidin-coated sensor chip. Competitive binding molecules (A1893 and A1938, 25 μM) were incubated with the purified UQCRB protein (25 μM) in the buffer (10 mM HEPES, 150 mM NaCl, 3 mM EDTA (pH 7.4)), and then UQCRB-competitive binding molecule complexes were injected onto the sensor chip at a flow rate of 30 μl/min. The surface of the sensor chip was regenerated by the injection of 5 μl of the regeneration buffer (50 mM NaOH). Molecular interaction analysis was performed using the BIAcore 2000 system (BIAcore AB), and the apparent binding affinities were calculated by the subtraction of resonance values of UQCRB binding to control biotin from those of UQCRB binding to biotinylated terpestacin. For competitive binding analysis, terpestacin and the compounds of the present invention were each incubated with the UQCRB protein, and then the complexes were injected into flow cells of the sensor chip.

HUVECs [1] = test: Invasiveness analysis (Transwell, VEGF-induced); type: cell-based, human; details: VEGF 30 ng/ml, 2.5 μM and 5 μM, 18 hours
Method: (§1) Serum-starved HUVECs were treated with VEGF (30 ng/mL) with or without A1893 or A1938 and then the in vitro angiogenesis analysis was performed.
Serum-starved human umbilical vein endothelial cells (HUVECs) were treated with VEGF with or without A1893 or A1938, and then the in vitro angiogenesis analysis was performed. The invasiveness of HUVECs was investigated using the Transwell chamber system with 8.0-μm pore-sized polycarbonate filter (Corning Costar). First, a lower portion of the filter was coated with 10 μl gelatin (10 mg/ml) for 1 hour, and an upper portion of the filter was coated with 10 μl Matrigel (3 mg/ml) for 2 hours. Then, 600 μl of the EBM-2 medium was put into the Transwell, and then, VEGF (30 ng/ml) and the compound of the present invention DPCN (2.5 μM and 5 μM) were added thereto. The coated filter was placed on the Transwell, and HUVECs (1×10^5 cells/well) were inoculated on the upper portion of the filter, following by incubation for 18 hours. After that, the cells were fixed with 70% methanol, and then stained with hematoxylin/eosin. Then, the total number of invaded cells was measured using an optical microscope at 100× magnification.

HUVECs [2] = test: Tube formation analysis on Matrigel; type: cell-based, human; details: VEGF 30 ng/ml, 2.5 μM and 5 μM, 8 hours
Method: as §1
Tube formation analysis was performed using HUVECs growing on Matrigel (Collaborative Biomedical Products). The 48-well plate was coated with 150 μl Matrigel, followed by polymerization at 37 for 2 hours. Then, human umbilical vein endothelial cells (HUVECs, 1×10^5 cells/well) were inoculated on Matrigel, and then VEGF (30 ng/ml) and the compound of the present invention DPCN (2.5 μM and 5 μM) were added thereto. The morphological change of cells was observed while the cells were incubated at room temperature for 8 hours. Tube formation was quantified by measuring the number of connected cells in randomly selected fields and dividing the measured number by the total number of cells in the same field.

HepG2 cells = test: Mitochondrial ROS generation analysis (DCF fluorescence); type: cell-based; details: HepG2 cells pretreated 30 minutes, then 1% O2 for 10 minutes
Method: Intracellular ROS levels were determined by the DCF fluorescence. HepG2 cells were pretreated with the compounds for 30 minutes, and then exposed to 1% O2 for 10 minutes. A1893 and A1938 suppressed hypoxia-induced mitochondrial ROS generation, which confirmed that A1893 and A1938 modulate the O2 sensing function of UQCRB.
The increase in ROS generation due to complex III during hypoxia triggers HIF-1α stabilization, and consequently mediates the expression of its target genes such as VEGF. UQCRB, which is an important component in mitochondrial complex III, acts as an O2 sensor and mediates hypoxia-induced tumor angiogenesis. In order to determine whether anti-angiogenic activity of A1893 and A1938 is associated with the modulation of the O2 sensing function of UQCRB, the present inventors investigated the mitochondrial ROS-mediated hypoxic signal transmission procedure of A1893 and A1938. HepG2 liver cancer cells were pretreated with A1893 and A1938 for 30 minutes, and then exposed to 1% O2 for 10 minutes. Intracellular ROS levels were determined by the DCF fluorescence. A1893 and A1938 suppressed the hypoxia-induced mitochondrial ROS generation in HepG2 cells in a dose-dependent manner (FIG. 5).

HUVECs [3] = test: Viability of endothelial cells; type: cell-based, human
[4] = stated with the invasion analysis
[5] = stated with the tube formation analysis

| Structure (SMILES) | IC50 (HIF-1α) [µM] | also measured |
| --- | --- | --- |
| CC(C)(C)c1ccc(S(=O)(=O)Nc2ccc(O)cc2Cl)cc1 [A2000, 4-tert-butyl-N-(2-chloro-4-hydroxy-phenyl)-benzene-sulfonamide] | 10 | – |
| CC(C)(C)c1ccc(S(=O)(=O)Nc2ccc(O)c(Cl)c2)cc1 [A2003, 4-tert-butyl-N-(3-chloro-4-hydroxy-phenyl)-benznene-sulfonamide] | 10 | – |
| CC(C)(C)c1ccc(S(=O)(=O)Nc2cc(Cl)c(O)c(Cl)c2)cc1 [A2006, 4-tert-butyl-N-(3,5-dichloro-4-hydroxy-phenyl)-benzene-sulfonamide] | 10 | – |
| CC(C)(C)c1ccc(S(=O)(=O)Nc2ccc(O)c(F)c2)cc1 [A2010, 4-tert-butyl-N-(3-fluoro-4-hydroxy-phenyl)-benzene-sulfonamide] | 10 | – |
| CC(C)(C)c1ccc(S(=O)(=O)Nc2ccc(O)cc2[N+](=O)[O-])cc1 [A2037, 4-tert-butyl-N-(2-nitro-4-hydroxy-phenyl)-benzene-sulfonamide] | 10 | – |
| O=[N+]([O-])c1cc(O)ccc1NS(=O)(=O)c1ccc(-c2ccccc2)cc1 [A2038, biphenyl-4-sulfonic acid (2-nitro-4-hydroxy-phenyl)-benzene-sulfonamide] | 5 | – |
| Cc1cc(NS(=O)(=O)c2ccc(-c3ccccc3)cc2)ccc1O [A2040, biphenyl-4-sulfonic acid (4-hydroxy-3-methyl-phenyl)-amide] | 5 | – |
| Cc1cc(NS(=O)(=O)c2ccc(-c3ccccc3)cc2)ccc1O [A2041, biphenyl-4-sulfonic acid (4-hydrox-3-methyl-phenyl)-amide] | 10 | – |
| O=S(=O)(Nc1cc(Cl)c(O)c(Cl)c1)c1ccc2ccccc2c1 [A2044, naphthalene-3-sulfonic acid (3,5-dichloro-4-hydroxy-phenyl)-amide] | 10 | – |
| O=S(=O)(NC1CCC(CCO)CC1)c1ccc2ccccc2c1 (stereo not drawn) [A2069, naphthalene-2-sulfonic acid [4-(2-hydroxy-ethyl)-cyclohenxyl]-amide] | 10 | – |
| C/C1=C\C[C@]2(C)C(=O)C(O)=C([C@H](C)CO)[C@H]2C/C=C(\C)[C@@H](O)CC/C(C)=C/CC1 [terpestacin, reference compound] | – | binding efficiency of UQCRB to biotinylated terpestacin (BT) after co-incubation (UQCRB): significantly decreased |

More lines, main results first:

| IC50 (HIF-1α) [µM] | Structure (SMILES) | also measured |
| --- | --- | --- |
| 10 | CCc1ccc(S(=O)(=O)Nc2cccc3ccc(O)cc23)cc1 [A1891, 4-ethyl-N-(7-hydroxy-naphthalen-1-yl)-benzene-sulfonamide] | – |
| 5 | CC(C)(C)c1ccc(S(=O)(=O)Nc2ccc(O)cc2)cc1 [A1893, 4-tert-butyl-N-(4-hydroxy-phenyl)-benzene-sulfonamide] | hypoxia-induced HIF-1α protein accumulation (HIF-1α): greatly reduced; binding efficiency of UQCRB to biotinylated terpestacin (BT) after co-incubation (UQCRB): significantly decreased; direct binding to UQCRB (UQCRB): directly bind to UQCRB; VEGF-induced invasion of HUVECs (HUVECs [1]): inhibited VEGF-induced invasion; tube formation of HUVECs (HUVECs [2]): inhibited the tube formation; hypoxia-induced mitochondrial ROS generation (HepG2 cells): suppressed; viability of endothelial cells (HUVECs [3]; [4]): without affecting viability; viability of endothelial cells (HUVECs [3]; [5]): without affecting viability |
| 5 | O=S(=O)(Nc1ccc(O)cc1)c1ccc(-c2ccccc2)cc1 [A1938, biphenyl-4-sulfonic acid (4-hydroxy-phenyl)-amide] | hypoxia-induced HIF-1α protein accumulation (HIF-1α): greatly reduced; binding efficiency of UQCRB to biotinylated terpestacin (BT) after co-incubation (UQCRB): significantly decreased; direct binding to UQCRB (UQCRB): directly bind to UQCRB; VEGF-induced invasion of HUVECs (HUVECs [1]): inhibited VEGF-induced invasion; tube formation of HUVECs (HUVECs [2]): inhibited the tube formation; hypoxia-induced mitochondrial ROS generation (HepG2 cells): suppressed; viability of endothelial cells (HUVECs [3]; [4]): without affecting viability; viability of endothelial cells (HUVECs [3]; [5]): without affecting viability |
| 5 | O=S(=O)(Nc1ccc(O)cc1Cl)c1ccc(-c2ccccc2)cc1 [A2001, biphenyl-4-sulfonic acid (2-chloro-4-hydroxy-phenyl)-amide] | – |
| 10 | CC(C)(C)c1ccc(S(=O)(=O)Nc2ccc(O)cc2F)cc1 [A2007, 4-tert-butyl-N-(2-fluoro-4-hydroxy-phenyl)-benzene-sulfonamide] | – |
| 5 | O=S(=O)(Nc1ccc(O)cc1F)c1ccc(-c2ccccc2)cc1 [A2008, biphenyl-4-sulfonic acid (2-fluoro-4-hydroxy-phenyl)-amide] | – |
| 5 | O=S(=O)(Nc1cccc(O)c1)c1ccc(-c2ccccc2)cc1 [A2033, biphenyl-4-sulfonic acid (3-hydroxy-phenyl)-amide] | – |
| 10 | O=S(=O)(Nc1cc(Cl)c(O)c(Cl)c1)c1ccc(-c2ccccc2)cc1 [A2043, biphenyl-4-sulfonic acid (3,5-dichloro-4-hydroxy-phenyl)-amide] | – |
| 10 | O=S(=O)(NCCc1ccc(O)cc1)c1ccc(-c2ccccc2)cc1 [A2060, biphenyl-4-sulfonic acid [2-(4-hydroxy-phenyl)-ethyl]-amide] | – |
